The record followed here is patent US20250255889A1, “METHODS FOR TREATMENT SELECTION FOR CHRONIC LYMPHOCYTIC LEUKEMIA (CLL)” (The Broad Institute, Inc., priority 2022, published 2025).

The assay has as its system primary CLL samples (CD19+ and CD5+ cells). Briefly: High-throughput dynamic BH3 profiling (HT-DBP): drug-induced apoptotic priming (delta priming), cytochrome c release after BH3 peptide. Type of assay: cell-based, human. Conditions: for drug-induced apoptotic priming: across CLL subtypes, 65 primary CLL samples, 20 hours drug. As to the method:
By “delta priming” is meant the difference in priming of a cell for apoptosis measured in the presence of an agent for treating chronic lymphocytic leukemia relative to priming of the cell in the presence of an inert carrier. In embodiments, the inert carrier is DMSO.
Dynamic BH3 Profiling Dynamic BH3 profiling (DBP) is a drug screening assay that measures the relative priming of cells in a biological sample for cell death by apoptosis in the presence of a specific compound and/or a pro-apoptotic peptide. By “Dynamic BH3 profiling” is meant measuring drug-induced changes in mitochondrial apoptotic priming. Mitochondrial apoptotic priming is a measure of how close to the apoptotic threshold a cell is. A highly primed cell has relatively less anti-apoptotic binding site availability and is closer to the apoptotic threshold than a poorly primed cell, which has more anti-apoptotic availability to buffer an apoptotic assault and is further from the apoptotic threshold. BH3 peptides derived from the BH3 domain of pro-apoptotic BH3-only proteins provoke a response from viable mitochondria. Cytochrome c released from the mitochondria after a short incubation with BH3 peptide is used as a surrogate for priming. In general, the more sensitive a mitochondrion is to a BH3 peptide, the more primed it is. A drug treatment that enhances priming will cause mitochondria to undergo MOMP more easily when incubated with a fixed concentration of a promiscuously binding BH3 peptide, such as BIM BH3 peptide, compared to control-treated cells. See, for example, Potter, D. S. & Letai, A. To prime, or not to prime: that is the question. Cold Spring Harb. Symp. Quant. Biol. 81, 131-140 (2016); Montero, J. et al. Drug-induced death signaling strategy rapidly predicts cancer response to chemotherapy. Cell 160, 977-989 (2015); Daniels, V. W. et al. Metabolic perturbations sensitize triple-negative breast cancers to apoptosis induced by BH3 mimetics. Sci.
Dynamic BH3 profiling and peptides for use therein are described, for example, in Certo, et al., “Mitochondria primed by death signals determine cellular addiction to antiapoptotic BCL-2 family members,” Cancer Cell, 9:351-365 (2006); and in Foight, et al. “Designed BH3 Peptides with High Affinity and Specificity for Targeting Mcl-1 in Cells,” ACS Chemical Biology, 9:1962-1968 (2014), the disclosures of which are incorporated herein by reference in their entireties for all purposes. The DBP assay enables one to compare the response of a patient tumor sample to a specific drug relative to other drugs and relative to an inert control (e.g., DMSO).
To address the challenge of selecting a proper treatment for a chronic lymphocytic leukemia, experiments were undertaken to optimize high-throughput dynamic BH3 profiling (HT-DBP) for evaluation of the drug sensitivities of CLL samples (FIGS. 1, 13, 5A, 5B, 6A, 6B, and 7A-7C).

Setting [1] is: peptide PUMA 1 uM, feature EC-i.
The mark [2] stands for this setting: peptide BAD 0.3 uM, feature BIRC3.
Where [3] appears, read: peptide BAD 0.3 uM, feature EC-m2.
The mark [4] stands for this setting: peptide BAD 0.3 uM, feature FBXW7.
Setting [5] is: peptide BAD 0.3 uM, feature ITIH2.
Setting [6] is: peptide BAD 0.3 uM, feature MYD88.
The mark [7] stands for this setting: peptide BAD 0.3 uM, feature gain_19p13.3.
Setting [8] is: peptide BAD 0.3 uM, feature i-CLL.
Setting [9] is: peptide BAD 0.3 uM, feature loss_3p21.31.
The mark [10] stands for this setting: peptide BAD 0.3 uM, feature loss_5p15.33.
[11] abbreviates: peptide BAD 0.3 uM, feature loss_7q36.1.
Setting [12] is: peptide BAD 0.3 uM, feature loss_8p.
Setting [13] is: peptide BAD 0.3 uM, feature loss_12p13.31a.
[14] abbreviates: peptide BAD 0.3 uM, feature loss_14q32.12.
Where [15] appears, read: peptide BAD 0.3 uM, feature loss_17p13.1.
The mark [16] stands for this setting: peptide BAD 0.3 uM, feature loss_17p13.3.
Setting [17] is: peptide BAD 0.3 uM, feature loss_17q11.2.
The mark [18] stands for this setting: peptide BIM 0.01 uM, feature EC-i.
The mark [19] stands for this setting: peptide BIM 0.01 uM, feature loss_1p36.11.
[20] abbreviates: peptide BIM 0.01 uM, feature loss_3p13.
The mark [21] stands for this setting: peptide BIM 0.01 uM, feature loss_10q24.32.
Where [22] appears, read: peptide BIM 0.01 uM, feature loss_18q21.2.
Where [23] appears, read: peptide BIM 0.01 uM, feature priortrt_Post.
Setting [24] is: peptide MS1 2.5 uM, feature EC-m4.

In the case of `CCn1c(-c2nonc2N)nc2c(C#CC(C)(C)O)ncc(OC[C@H]3CCCNC3)c21` [GSK690693], the direction result is, setting by setting: (Feature i-CLL) “Sensitive”; (peptide BAD 0.3 uM, feature EC-o) “Sensitive”; (peptide BAD 0.3 uM, feature POT1) “Resistant”; (peptide BAD 0.3 uM, feature loss_3p13) “Resistant”; (peptide BIM 0.01 uM, feature i-CLL) “Sensitive”; (peptide MS1 2.5 uM, feature EC-m3) “Resistant”. The direction entry (peptide MS1 2.5 uM, feature EC-o) is “Sensitive”; the direction entry (peptide MS1 2.5 uM, feature i-CLL) was “Sensitive”; the direction result (peptide MS1 2.5 uM, feature loss_13q14.13) is recorded as “Sensitive”; the direction result (peptide PUMA 1 uM, feature BIRC3) was “Sensitive”; the direction entry (peptide PUMA 1 uM, feature ITIH2) was “Sensitive”; the direction entry (peptide PUMA 1 uM, feature i-CLL) is “Sensitive”. For the same compound, the direction result (peptide PUMA 1 uM, feature loss_9p21.3) is listed as “Sensitive” and the direction entry (peptide PUMA 1 uM, feature loss_17q11.2) is “Sensitive”.
For the compound `Cc1cc(Nc2cc(CN3CCOCC3)c3nc(C)c(Cc4ccc(Cl)cc4F)n3n2)n[nH]1` [Gandotinib], the drug-induced apoptotic priming result is reported as “high priming”. The “drug-induced apoptotic priming by expression cluster” value (EC-ul (U-CLL)) is “most sensitive”. Besides, the direction result (Feature EC-i) is reported as “Resistant”. Further, the direction result (peptide BAD 0.3 uM, feature EC-i) was “Resistant”. The direction entry (peptide BAD 0.3 uM, feature GNB1) is on record as “Sensitive”. Moreover, under setting [1], the direction entry is reported as “Resistant”. Under “peptide PUMA 1 uM, feature GNB1”, the direction result is on record as “Sensitive”.
As for `CC[C@H](Nc1ncnc2nc[nH]c12)c1nc2cccc(F)c2c(=O)n1-c1ccccc1` [Idelalisib, idelalisib], the drug-induced apoptotic priming entry is “high priming”. For the same compound, under “peptide MS1 2.5 uM, feature tri_12”, the direction entry is on record as “Sensitive”. In addition, the direction entry (peptide PUMA 1 uM, feature DICER1) was “Resistant”. Moreover, the direction result (peptide PUMA 1 uM, feature EC-m4) is on record as “Sensitive”. Moreover, the direction result (peptide PUMA 1 uM, feature KMT2D) is reported as “Sensitive”. Where the note is “peptide PUMA 1 uM, feature MED1”, the direction entry was “Resistant”.
As for `Cc1sc2c(c1C)C(c1ccc(Cl)cc1)=N[C@@H](CC(=O)OC(C)(C)C)c1nnc(C)n1-2` [JQ1], the direction result by setting is: (Feature EC-i) “Sensitive”; (Feature FBXW7) “Sensitive”; under setting [2], “Sensitive”; under setting [3], “Sensitive”; under setting [4], “Sensitive”; under setting [5], “Sensitive”. Further, the direction result is “Resistant” under setting [6]; “Sensitive” under setting [7]; “Sensitive” under setting [8]; “Resistant” under setting [9]; “Resistant” under setting [10]; “Resistant” under setting [11]. Besides, the direction result is listed as “Resistant” under setting [12]; “Resistant” under setting [13]; “Resistant” under setting [14]; “Sensitive” under setting [15]; “Resistant” under setting [16]; “Sensitive” under setting [17]. Further, the direction result under setting [18] is reported as “Sensitive”; the direction entry under setting [19] is recorded as “Sensitive”; the direction entry under setting [20] was “Sensitive”; the direction result under setting [21] is given as “Sensitive”; the direction result under setting [22] is “Sensitive”; the direction result under setting [23] was “Sensitive”. For the same compound, the direction entry is reported as “Sensitive” under setting [24]; “Resistant” (peptide PUMA 1 uM, feature ATM); “Resistant” under setting [1]; “Resistant” (peptide PUMA 1 uM, feature MYD88); “Resistant” (peptide PUMA 1 uM, feature gain_16p11.2); “Sensitive” (peptide PUMA 1 uM, feature loss_1p36.11). Besides, the direction result (peptide PUMA 1 uM, feature loss_1q21.3) is listed as “Resistant”; the direction result (peptide PUMA 1 uM, feature loss_2q31.1) is listed as “Resistant”; the direction result (peptide PUMA 1 uM, feature loss_3p13) is listed as “Sensitive”; the direction result (peptide PUMA 1 uM, feature loss_3p21.31) is on record as “Resistant”; the direction entry (peptide PUMA 1 uM, feature loss_5p15.33) is “Resistant”; the direction entry (peptide PUMA 1 uM, feature loss_7p22.2) is listed as “Resistant”. In addition, the direction entry was “Resistant” (peptide PUMA 1 uM, feature loss_7q36.1); “Resistant” (peptide PUMA 1 uM, feature loss_8p); “Resistant” (peptide PUMA 1 uM, feature loss_10p12.2); “Sensitive” (peptide PUMA 1 uM, feature loss_10q24.32); “Resistant” (peptide PUMA 1 uM, feature loss_12p13.31a); “Resistant” (peptide PUMA 1 uM, feature loss_14q32.12). Besides, the direction result runs as follows: (peptide PUMA 1 uM, feature loss_16q22.1) “Resistant”; (peptide PUMA 1 uM, feature loss_17p13.3) “Resistant”; (peptide PUMA 1 uM, feature loss_18q21.2) “Sensitive”. Besides, the dprim_pearson_corr is, setting by setting: under setting [2], 0.6355; under setting [3], 0.3877; under setting [4], 0.5086; under setting [5], 0.6355; under setting [6], −0.3438; under setting [7], 0.359. Further, the dprim_pearson_corr reads like this: under setting [8], 0.3327; under setting [9], −0.3438; under setting [10], −0.3996; under setting [11], −0.3438; under setting [12], −0.3438; under setting [13], −0.3996. Further, the dprim_pearson_corr reads like this: under setting [14], −0.3438; under setting [15], 0.507; under setting [16], −0.3996; under setting [17], 0.6355; under setting [18], 0.3826; under setting [19], 0.4365. Moreover, the dprim_pearson_corr was determined as 0.3364 under setting [20]; 0.4365 under setting [21]; 0.4365 under setting [22]; 0.3609 under setting [23]; 0.3901 under setting [24].
In the case of `Nc1cccc2c1CN(C1CCC(=O)NC1=O)C2=O` (stereo not drawn) [Lenalidomide], the direction entry runs as follows: (peptide BAD 0.3 uM, feature loss_10q24.32) “Resistant”; (peptide BIM 0.01 uM, feature loss_15q15.1b) “Resistant”; (peptide BIM 0.01 uM, feature loss_20p11.22) “Resistant”; (peptide MS1 2.5 uM, feature CNOT3) “Sensitive”.
